# According to PubChem BioAssay (NCI):
#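 Test compounds were applied to cells in 96-well plates for 48 hours at 5 doses. GI50 is the concentration that inhibits growth by half. TGI marks complete inhibition of growth.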
# Key:
# Experiment in all cases: growth of human tumour cells (NCI), 48 h
# 786-0 renal = test system: 786-0 renal
# A549 NSCLC = test system: A549 NSCLC
# ACHN renal = test system: ACHN renal
# CCRF-CEM leukemia = test system: CCRF-CEM leukemia
# COLO 205 colon = test system: COLO 205 colon
# DU-145 prostate = test system: DU-145 prostate
# EKVX NSCLC = test system: EKVX NSCLC
# HCC-2998 colon = test system: HCC-2998 colon
# HCT-116 colon = test system: HCT-116 colon
# HCT-15 colon = test system: HCT-15 colon
# HL-60(TB) leukemia = test system: HL-60(TB) leukemia
# HOP-62 NSCLC = test system: HOP-62 NSCLC
# HOP-92 NSCLC = test system: HOP-92 NSCLC
# HS 578T breast = test system: HS 578T breast
# HT29 colon = test system: HT29 colon
# IGROV1 ovarian = test system: IGROV1 ovarian
# K-562 leukemia = test system: K-562 leukemia
# KM12 colon = test system: KM12 colon
# LOX IMVI melanoma = test system: LOX IMVI melanoma
# M14 melanoma = test system: M14 melanoma
# MDA-MB-231 breast = test system: MDA-MB-231 breast
# MDA-MB-435 = test system: MDA-MB-435
# MDA-N = test system: MDA-N
# MOLT-4 leukemia = test system: MOLT-4 leukemia
# NCI-H226 lung = test system: NCI-H226 lung
# NCI-H23 lung = test system: NCI-H23 lung
# NCI-H460 lung = test system: NCI-H460 lung
# NCI-H522 lung = test system: NCI-H522 lung
# NCI/ADR-RES ovarian = test system: NCI/ADR-RES ovarian
# OVCAR-3 ovarian = test system: OVCAR-3 ovarian
# OVCAR-5 ovarian = test system: OVCAR-5 ovarian
# OVCAR-8 ovarian = test system: OVCAR-8 ovarian
# PC-3 prostate = test system: PC-3 prostate
# RPMI-8226 leukemia = test system: RPMI-8226 leukemia
# RXF 393 renal = test system: RXF 393 renal
# SF-268 CNS = test system: SF-268 CNS
# SF-295 CNS = test system: SF-295 CNS
# SF-539 CNS = test system: SF-539 CNS
# SK-MEL-2 melanoma = test system: SK-MEL-2 melanoma
# SK-MEL-28 melanoma = test system: SK-MEL-28 melanoma
# SK-MEL-5 melanoma = test system: SK-MEL-5 melanoma
# SK-OV-3 ovarian = test system: SK-OV-3 ovarian
# SN12C renal = test system: SN12C renal
# SNB-19 CNS = test system: SNB-19 CNS
# SNB-75 CNS = test system: SNB-75 CNS
# SR leukemia = test system: SR leukemia
# SW-620 colon = test system: SW-620 colon
# T-47D breast = test system: T-47D breast
# TK-10 renal = test system: TK-10 renal
# U251 CNS = test system: U251 CNS
# UACC-257 melanoma = test system: UACC-257 melanoma
# UACC-62 melanoma = test system: UACC-62 melanoma
# A498 renal = test system: A498 renal
# BT-549 breast = test system: BT-549 breast
# CAKI-1 renal = test system: CAKI-1 renal
# MALME-3M melanoma = test system: MALME-3M melanoma
# MCF7 breast = test system: MCF7 breast
# OVCAR-4 ovarian = test system: OVCAR-4 ovarian
# UO-31 renal = test system: UO-31 renal
compound,measurement,setting,value
COC(=O)c1ccccc1C1=C([N+](=O)[O-])C(c2ccccc2)C(C#N)=C(N)O1 (configuration not stated),TGI,786-0 renal,> 100 µM
same,TGI,A549 NSCLC,> 100 µM
same,TGI,ACHN renal,> 100 µM
same,TGI,CCRF-CEM leukemia,> 100 µM
same,TGI,COLO 205 colon,> 100 µM
same,TGI,DU-145 prostate,> 100 µM
same,TGI,EKVX NSCLC,> 100 µM
same,TGI,HCC-2998 colon,> 100 µM
same,TGI,HCT-116 colon,> 100 µM
same,TGI,HCT-15 colon,46.6 µM
same,TGI,HL-60(TB) leukemia,> 100 µM
same,TGI,HOP-62 NSCLC,> 100 µM
same,TGI,HOP-92 NSCLC,> 100 µM
same,TGI,HS 578T breast,> 100 µM
same,TGI,HT29 colon,> 100 µM
same,TGI,IGROV1 ovarian,> 100 µM
same,TGI,K-562 leukemia,> 100 µM
same,TGI,KM12 colon,> 100 µM
same,TGI,LOX IMVI melanoma,> 100 µM
same,TGI,M14 melanoma,> 100 µM
same,TGI,MDA-MB-231 breast,> 100 µM
same,TGI,MDA-MB-435,> 100 µM
same,TGI,MDA-N,> 100 µM
same,TGI,MOLT-4 leukemia,> 100 µM
same,TGI,NCI-H226 lung,> 100 µM
same,TGI,NCI-H23 lung,> 100 µM
same,TGI,NCI-H460 lung,> 100 µM
same,TGI,NCI-H522 lung,30.8 µM
same,TGI,NCI/ADR-RES ovarian,> 100 µM
same,TGI,OVCAR-3 ovarian,88.9 µM
same,TGI,OVCAR-5 ovarian,> 100 µM
same,TGI,OVCAR-8 ovarian,> 100 µM
same,TGI,PC-3 prostate,> 100 µM
same,TGI,RPMI-8226 leukemia,> 100 µM
same,TGI,RXF 393 renal,95.2 µM
same,TGI,SF-268 CNS,> 100 µM
same,TGI,SF-295 CNS,> 100 µM
same,TGI,SF-539 CNS,> 100 µM
same,TGI,SK-MEL-2 melanoma,> 100 µM
same,TGI,SK-MEL-28 melanoma,> 100 µM
same,TGI,SK-MEL-5 melanoma,> 100 µM
same,TGI,SK-OV-3 ovarian,> 100 µM
same,TGI,SN12C renal,> 100 µM
same,TGI,SNB-19 CNS,> 100 µM
same,TGI,SNB-75 CNS,> 100 µM
same,TGI,SR leukemia,> 100 µM
same,TGI,SW-620 colon,> 100 µM
same,TGI,T-47D breast,> 100 µM
same,TGI,TK-10 renal,> 100 µM
same,TGI,U251 CNS,> 100 µM
same,TGI,UACC-257 melanoma,> 100 µM
same,TGI,UACC-62 melanoma,> 100 µM
NC(=O)c1ccccc1NC(=O)c1ccccc1Cl,GI50,786-0 renal,> 100 µM
same,TGI,786-0 renal,> 100 µM
same,GI50,A498 renal,56.2 µM
same,TGI,A498 renal,> 100 µM
same,GI50,A549 NSCLC,> 100 µM
same,TGI,A549 NSCLC,> 100 µM
same,GI50,ACHN renal,> 100 µM
same,TGI,ACHN renal,> 100 µM
same,GI50,BT-549 breast,> 100 µM
same,TGI,BT-549 breast,> 100 µM
same,GI50,CAKI-1 renal,> 100 µM
same,TGI,CAKI-1 renal,> 100 µM
same,GI50,CCRF-CEM leukemia,> 100 µM
same,TGI,CCRF-CEM leukemia,> 100 µM
same,GI50,COLO 205 colon,> 100 µM
same,TGI,COLO 205 colon,> 100 µM
same,GI50,DU-145 prostate,> 100 µM
same,TGI,DU-145 prostate,> 100 µM
same,GI50,EKVX NSCLC,> 100 µM
same,TGI,EKVX NSCLC,> 100 µM
same,GI50,HCC-2998 colon,> 100 µM
same,TGI,HCC-2998 colon,> 100 µM
same,GI50,HCT-116 colon,> 100 µM
same,TGI,HCT-116 colon,> 100 µM
same,GI50,HCT-15 colon,> 100 µM
same,TGI,HCT-15 colon,> 100 µM
same,GI50,HL-60(TB) leukemia,> 100 µM
same,TGI,HL-60(TB) leukemia,> 100 µM
same,GI50,HOP-62 NSCLC,> 100 µM
same,TGI,HOP-62 NSCLC,> 100 µM
same,GI50,HOP-92 NSCLC,60.7 µM
same,TGI,HOP-92 NSCLC,> 100 µM
same,GI50,HS 578T breast,> 100 µM
same,TGI,HS 578T breast,> 100 µM
same,GI50,HT29 colon,> 100 µM
same,TGI,HT29 colon,> 100 µM
same,GI50,IGROV1 ovarian,> 100 µM
same,TGI,IGROV1 ovarian,> 100 µM
same,GI50,K-562 leukemia,> 100 µM
same,TGI,K-562 leukemia,> 100 µM
same,GI50,KM12 colon,> 100 µM
same,TGI,KM12 colon,> 100 µM
same,GI50,LOX IMVI melanoma,> 100 µM
same,TGI,LOX IMVI melanoma,> 100 µM
same,GI50,M14 melanoma,> 100 µM
same,TGI,M14 melanoma,> 100 µM
same,GI50,MALME-3M melanoma,> 100 µM
same,TGI,MALME-3M melanoma,> 100 µM
same,GI50,MCF7 breast,> 100 µM
same,TGI,MCF7 breast,> 100 µM
same,GI50,MDA-MB-231 breast,> 100 µM
same,TGI,MDA-MB-231 breast,> 100 µM
same,GI50,MDA-MB-435,58.9 µM
same,TGI,MDA-MB-435,> 100 µM
same,GI50,MOLT-4 leukemia,> 100 µM
same,TGI,MOLT-4 leukemia,> 100 µM
same,GI50,NCI-H226 lung,> 100 µM
same,TGI,NCI-H226 lung,> 100 µM
same,GI50,NCI-H23 lung,> 100 µM
same,TGI,NCI-H23 lung,> 100 µM
same,GI50,NCI-H460 lung,> 100 µM
same,TGI,NCI-H460 lung,> 100 µM
same,GI50,NCI-H522 lung,> 100 µM
same,TGI,NCI-H522 lung,> 100 µM
same,GI50,NCI/ADR-RES ovarian,> 100 µM
same,TGI,NCI/ADR-RES ovarian,> 100 µM
same,GI50,OVCAR-3 ovarian,> 100 µM
same,TGI,OVCAR-3 ovarian,> 100 µM
same,GI50,OVCAR-4 ovarian,> 100 µM
same,TGI,OVCAR-4 ovarian,> 100 µM
same,GI50,OVCAR-5 ovarian,> 100 µM
same,TGI,OVCAR-5 ovarian,> 100 µM
same,GI50,OVCAR-8 ovarian,> 100 µM
same,TGI,OVCAR-8 ovarian,> 100 µM
same,GI50,PC-3 prostate,> 100 µM
same,TGI,PC-3 prostate,> 100 µM
same,GI50,RPMI-8226 leukemia,> 100 µM
same,TGI,RPMI-8226 leukemia,> 100 µM
same,GI50,RXF 393 renal,> 100 µM
same,TGI,RXF 393 renal,> 100 µM
same,GI50,SF-268 CNS,> 100 µM
same,TGI,SF-268 CNS,> 100 µM
same,GI50,SF-295 CNS,> 100 µM
same,TGI,SF-295 CNS,> 100 µM
same,GI50,SF-539 CNS,> 100 µM
same,TGI,SF-539 CNS,> 100 µM
same,GI50,SK-MEL-2 melanoma,> 100 µM
same,TGI,SK-MEL-2 melanoma,> 100 µM
same,GI50,SK-MEL-28 melanoma,> 100 µM
same,TGI,SK-MEL-28 melanoma,> 100 µM
same,GI50,SK-MEL-5 melanoma,> 100 µM
same,TGI,SK-MEL-5 melanoma,> 100 µM
same,GI50,SK-OV-3 ovarian,> 100 µM
same,TGI,SK-OV-3 ovarian,> 100 µM
same,GI50,SN12C renal,> 100 µM
same,TGI,SN12C renal,> 100 µM
same,GI50,SNB-19 CNS,> 100 µM
same,TGI,SNB-19 CNS,> 100 µM
same,GI50,SNB-75 CNS,> 100 µM
same,TGI,SNB-75 CNS,> 100 µM
same,GI50,SR leukemia,> 100 µM
same,TGI,SR leukemia,> 100 µM
same,GI50,SW-620 colon,> 100 µM
same,TGI,SW-620 colon,> 100 µM
same,GI50,T-47D breast,> 100 µM
same,TGI,T-47D breast,> 100 µM
same,GI50,TK-10 renal,> 100 µM
same,TGI,TK-10 renal,> 100 µM
same,GI50,U251 CNS,> 100 µM
same,TGI,U251 CNS,> 100 µM
same,GI50,UACC-257 melanoma,> 100 µM
same,TGI,UACC-257 melanoma,> 100 µM
same,GI50,UACC-62 melanoma,> 100 µM
same,TGI,UACC-62 melanoma,> 100 µM
same,GI50,UO-31 renal,> 100 µM
same,TGI,UO-31 renal,> 100 µM
CC(=O)OCC12CCC3C4(C)CCCC(C)(C)C4CCC3(C)C1CC(C1=CC(=O)OC1O)O2 (configuration not stated),TGI,786-0 renal,2.28 µM
same,TGI,A549 NSCLC,> 10 µM
same,TGI,CAKI-1 renal,2.81 µM
same,TGI,CCRF-CEM leukemia,> 10 µM
same,TGI,COLO 205 colon,4.18 µM
same,TGI,DU-145 prostate,6.64 µM
same,TGI,EKVX NSCLC,5.92 µM
same,TGI,HCC-2998 colon,3.67 µM
same,TGI,HCT-15 colon,2.5 µM
same,TGI,HL-60(TB) leukemia,2.76 µM
same,TGI,HOP-62 NSCLC,6.45 µM
same,TGI,HT29 colon,3.58 µM
same,TGI,IGROV1 ovarian,3.6 µM
same,TGI,K-562 leukemia,4.72 µM
same,TGI,KM12 colon,3.54 µM
same,TGI,LOX IMVI melanoma,2.54 µM
same,TGI,M14 melanoma,2.96 µM
same,TGI,MALME-3M melanoma,2.44 µM
same,TGI,MCF7 breast,> 10 µM
same,TGI,MDA-MB-231 breast,4.44 µM
same,TGI,MDA-N,2.89 µM
same,TGI,MOLT-4 leukemia,0.797 µM
same,TGI,NCI-H23 lung,3.86 µM
same,TGI,OVCAR-8 ovarian,3.91 µM
same,TGI,PC-3 prostate,2.63 µM
same,TGI,RPMI-8226 leukemia,> 10 µM
same,TGI,RXF 393 renal,3.82 µM
same,TGI,SF-295 CNS,5.56 µM
same,TGI,SK-MEL-28 melanoma,3.44 µM
same,TGI,SK-MEL-5 melanoma,3.44 µM
same,TGI,SK-OV-3 ovarian,6.32 µM
same,TGI,SN12C renal,3.09 µM
same,TGI,SNB-75 CNS,3.32 µM
same,TGI,SR leukemia,0.846 µM
same,TGI,SW-620 colon,6.47 µM
same,TGI,T-47D breast,> 10 µM
same,TGI,TK-10 renal,3.31 µM
same,TGI,UACC-257 melanoma,3.63 µM
same,TGI,UACC-62 melanoma,4.82 µM
